According to patent US11166970B2, “Composition for preventing or treating neurological disorder comprising aucubin” (University-Industry Cooperation Group of Kyung Hee …, priority 2017, dated 2021):

Tests used:
[1] = tested on: GABAergic neurons expressing a GAD65/67 marker; test: Immunofluorescence staining: survival rate of GABAergic neurons expressing a GAD65/67 marker; assay type: cell-based, rat; conditions: aucubin 0.01-10 μM vs cells not treated with aucubin; survival rate relative to total number of cells; FIG. 1A
Excerpt: (§1) In order to culture neurons, cells were obtained from the brain of an E16 rat embryo according to a method known in the art (Lim et al., 2007; Jo et al., 2007). Specifically, hippocampal eminence was isolated from the forebrain of the E16 rat embryo, and cells were mechanically isolated from the thus-obtained hippocampal eminence tissue by using Ca^2+/Mg^2+-free HBSS(Hanks' Balanced Salt Solution, Invitrogen). PAX6-GFP expressing neuronal precursor cells (NPCs) were isolated from the sub ventricular zone of a PAX6-GFP transgenic mouse.
(§2) The culture of cells was supplemented with 10 ng/mL or 20 ng/mL of bFGF (basic fibroblast growth factor, Invitrogen), and culturing was performed for 3 days in a serum-free N2 medium. After the confluency of cells reaches 70% to 80% by culturing for 3 to 4 days, the cells were subjected to passaging, and then divided and seeded according to an experimental use. Subsequently, the cells were cultured for 7 days in a N2 medium where FGF is removed, allowing neurons to be sufficiently differentiated. The cells were treated with aucubin (Sigma) at varying concentrations (0 μM, 0.01 μM, 0.1 μM, 1 μM, or 10 μM) in a bFGF-free N2 medium. […]
(§3) Thereafter, the number of the stained cells was counted and the survival rates thereof were shown in a graph. […]

[2] = tested on: glutamatergic neurons expressing a vGluT1 marker; test: Immunofluorescence staining: survival rate of glutamatergic neurons expressing a vGluT1 marker; assay type: cell-based, rat; conditions: aucubin 0.01-10 μM vs cells not treated with aucubin; increase remarkably lower than for GABAergic neurons; FIG. 1B
Excerpt: as §1, §2, §3

[3] = tested on: GABAergic neurons expressing a GAD65/67 marker; test: Immunofluorescence staining: survival rate of GABAergic neurons in ChAT-GFP transgenic mouse culture; assay type: cell-based; conditions: ChAT-GFP transgenic mouse cells; aucubin 0.01-10 μM vs untreated; relative to total DAPI-stained cells; FIG. 2b
Experimental: as §2
(§4) For GFP-fluorescence staining, an anti-GFP (rabbit anti-GFP antibody, 1:500, Merck, Germany) primary antibody was used. […]
(§5) Thereafter, the number of the stained cells was counted, and compared with the number of the cells expressing a GABAergic neuron-specific marker (GAD65/67), and the survival rates thereof were shown in a graph.
(§6) Specifically, the cells cultured by the method according to Experimental Example 1 were treated with aucubin at varying concentrations of 0 μM, 0.01 μM, 0.1 μM, 1 μM, and 10 μM, respectively. The number of GABAergic neurons expressing a GAD65/67 marker and the number of cholinergic neuron expressing a ChAT-GFP marker were shown in graphs as survival rates relative to the total number of cells which were fluorescence stained with DAPI.

[4] = tested on: cholinergic neurons expressing a ChAT-GFP marker; test: Immunofluorescence staining: survival rate of cholinergic neurons expressing a ChAT-GFP marker; assay type: cell-based; conditions: ChAT-GFP transgenic mouse cells; aucubin 0.01-10 μM vs untreated; relative to total DAPI-stained cells; FIG. 2b
Experimental: as §2, §4, §5, §6

NeuN = test: Immunoblot analysis: expression of NeuN (mature neuron-specific marker); assay type: cell-based, rat; conditions: relative to β-actin, aucubin 0.01-10 μM vs untreated, FIG. 3A, B
Excerpt: as §1, with “mouse. […]” for “mouse.”
(§7) Specifically, cells (30,000 cells/cm^2), which were cultured in a 60 mm petri dish coated with 15 μg/mL of poly-L-ornithine (Sigma-Aldrich, USA) and 1 μg/mL of fibronectin (Sigma-Aldrich, USA), were used. […] The protein quantification was performed using a Bradford protein assay kit (Bio-Rad, Hercules, Calif., USA).
(§8) Subsequently, a mixture of 20 μg of the proteins and a loading buffer (Biosesang Co., Seoul, Korea) was boiled at 100° C. for 10 minutes to denature the proteins. […] Thereafter, signals were detected after culturing the proteins with a secondary antibody.
(§9) In order to verify the effect of aucubin on enhancing the survival rates of GABAergic and glutamatergic neurons, the cells were treated with aucubin, followed by quantifying the expression levels of each cell type marker by an immunoblot method. […]

GAD65/67 = test: Immunoblot analysis: expression of GAD65/67 (GABAergic neuron-specific marker); assay type: cell-based, rat; conditions: relative to β-actin, aucubin 0.01-10 μM vs untreated, FIG. 3A, C
Excerpt: as §1, with “mouse. […]” for “mouse.”
as §7, §8, §9

vGluT1 = test: Immunoblot analysis: expression of vGluT1 (glutamatergic neuron-specific marker); assay type: cell-based, rat; conditions: relative to β-actin, aucubin 0.01-10 μM vs untreated, remarkably lower than GAD65/67, FIG. 3A, D
Excerpt: as §1, with “mouse. […]” for “mouse.”
as §7, §8, §9

[5] = tested on: neuronal precursor cells expressing Pax6-GFP; test: Immunofluorescence staining: number of neuronal precursor cells expressing Pax6-GFP; assay type: cell-based; conditions: Pax6-GFP transgenic mouse neuronal precursor cells; aucubin 0.01-10 μM vs untreated; FIG. 4A, B
Excerpt: as §1, §2, §4

[6] = tested on: cells synthesizing GABA among the cells expressing Pax6-GFP; test: Immunofluorescence staining: ratio of cells synthesizing GABA among cells expressing Pax6-GFP; assay type: cell-based; conditions: Pax6-GFP transgenic mouse neuronal precursor cells; aucubin 0.01-10 μM vs untreated; FIG. 4C
Excerpt: as §1, §2, §4

Compound: OCC1=C[C@@H](O)[C@@H]2C=CO[C@@H](O[C@@H]3O[C@H](CO)[C@@H](O)[C@H](O)[C@H]3O)[C@H]12 [aucubin]
- increase in survival rate of GABAergic neurons expressing a GAD67/65 marker [1]: up to 2 fold
- survival rate of excitatory neurons expressing vGluT1 [2]: significantly increased
- increase in survival rate of GABAergic neurons expressing a GAD65/67 marker [3]: ~2 fold
- survival rate of cholinergic cells expressing a ChAT-GFP marker [4]: the increase rate thereof was not significant
- expression of NeuN (mature neuron-specific marker) (NeuN): remarkably increased
- increase in expression of GAD65/67 (GABAergic neuron-specific marker) (GAD65/67): up to 5 fold
- expression of vGluT1 (glutamatergic neuron-specific marker) (vGluT1): significantly increased
- increase in number of cells which express Pax6-GFP [5]: about 2 fold
- increase in ratio of cells synthesizing GABA among the cells expressing Pax6-GFP [6]: ≥ 1.5 fold
